# Assay results: patent US7186695B2 (priority 2001, dated 2007)
# pIC50: −log10 of the molar value. “Also recorded” adds a separate entry of the source. Like-named read-outs stand apart in the source and are kept apart here.
# Columns and labels:
# [1] = system: BAE cells; assay: Proliferation and viability of cultured cells, 72 hr, cell count; format: cell-based, bovine; conditions: for pIC50: Bos taurus, 72 h, BAE, 72 hr
# Experimental: (§1) BCE (Folkman et al. 1979), BAE, BxPC-3 (ATCC, Bethesda, Md.), HT1080 (Jiang et al., 1999), 3T3 (ATCC, Bethesda, Md.) and BVSM (Hogg et al., 1997) cells were harvested and cultured as indicated. Cells (0.5 mL of 30,000 or 100,000 cells per mL) were seeded into gelatinized 24-well culture plates (Corning Costar, Corning, N.Y.) in Dulbecco's Modified Eagle's Medium (DMEM, JHR Bioscience, Lenexa, Kans.) containing 10% fetal calf serum (FCS, Intergen Comp., Purchase, N.Y.) and 1% Glutamine Pen-Strep (GPS, Irvine Scientific, Santa Ana, Va.) and allowed to attach for 24 hr in 10% CO2 at 37° C. The media was then replaced with DMEM and 1% GPS containing 0 to 1 mM GSAO or GSAA and either 5% bovine calf serum (BCS, HyClone, Logan, Utah) and 1 ng per mL FGF-2 (Genzyme, Cambridge, Mass.) or 5% BCS and 10 ng per mL VEGF (Genzyme, Cambridge, Mass.) for BCE cells, 5% or 10% BCS for BAE cells, 5% BCS for BVSM cells, and 5% FCS for BxPC-3, HT1080 and 3T3 cells. Cells were cultured for 0 to 72 hr in 10% CO2 at 37° C. then dispersed in trypsin/EDTA (GibcoBRL, Granc Island, N.Y.), resuspended in Coulter balanced electrolyte solution and counted with a Z1 Coulter counter (Coulter Corp., Miami, Fla.). In all experiments there were two control wells containing DMEM with 1% GPS and either 5% BCS for BCE cells, 2% BCS for BAE and BVSM cells, or 2% FCS for BxPC-3, HT1080 and 3T3 cells. These wells represented no to limited proliferation.
# [2] = system: 3T3 fibroblasts; assay: as above; format: cell-based, murine
# Experimental: (§2) FIG. 19. Effect of GSAO on Proliferation of non-endothelial cells. 15,000 BxPC-3 (part A), HT1080 (part B), 3T3 (part C) or BVSM (part D) cells per well were seeded into gelatinised 24-well culture plates and allowed to attach for 24 hr. The media was then replaced with DMEM containing 0 to 1 mM GSAO or GSAA and either 5% BCS (part D) or 5% FCS (parts A, B and C). Cells were cultured for 72 hr and then dispersed and counted. The dotted lines indicate the cell number in control wells containing DMEM and 2% BCS (part D) or 2% FCS (parts A, B and C) which represented no to limited proliferation. The data points and errors represent the mean and range of duplicate wells.
# as §1
# [3] = system: HT1080 cells; assay: as above; format: cell-based, human
# Experimental: as §2, §1
# [4] = system: BxPC-3 cells; assay: as above; format: cell-based, human
# Experimental: as §2, §1
# [5] = system: BVSM cells; assay: as above; format: cell-based, bovine
# Experimental: as §2, §1
# [6] = system: BCE cells; assay: as above; format: cell-based, bovine; conditions: for pIC50: Bos taurus, 72 h, BCE
# Experimental: FIG. 18. Inhibition of proliferation and reduction in viability of BCE cells by GSAO. 15,000 (part A and B) or 50,000 (part C and D) BCE cells per well were seeded into gelatinised 24-well culture plates and allowed to attach for 24 hr (part A, B and D) or 72 hr (part C). The media was then replaced with DMEM containing 5% BCS and 0 to 1 mM GSAO or GSM and either 1 ng per mL FGF-2 (part A) or 10 ng per mL VEGF (part B). In part D, the media was replaced with DMEM containing 5% BCS and 1 ng per mL FGF-2 and either 10 μM GSAO or GSM. In part C, the media was replaced with DMEM containing 5% BCS and 0 to 1 mM GSAO or GSAA. Cells were cultured for 72 hr in parts A, B and C or for discrete times up to 48 hr in part D and then dispersed and counted. The dotted line in parts A, B and C indicate the cell number in control wells containing DMEM and 5% BCS which represented no to limited proliferation. The dotted line in part D represents no change in cell number over the 48 hr. The data points and errors represent the mean and range of duplicate wells.
# as §1
# [7] = system: chick chorioallantoic membrane (CAM) angiogenesis; assay: Chick chorioallantoic membrane (CAM) angiogenesis assay; format: in vivo; conditions: 5, 10 or 50 μg per pellet, 48 hr
# Experimental: FIG. 22. Inhibition of CAM angiogenesis by GSAO. Fertilised 3 day-old white Leghorn eggs were cracked, the embryos placed in petri dishes and incubated for 3 days. Methylcellulose discs containing 5, 10 or 50 μg of either GSAA or GSAO were then applied to the CAM of individual embryos and incubated for 48 hr. The CAMs were scored for no obvious effect or inhibition of angiogenesis as defined by avascular zones. Photographs of CAM's after incubation with discs containing 10 μg of either GSM (top) or GSAO (bottom) is shown in the left hand panel. The dotted circle indicates the placement of the disc.
# The chick CAM assay has been used for the detection and analysis of angiogenesis inhibition (Nguyen et al., 1994). Fertilised 3 day-old white Leghorn eggs (Spafas, Norwich, Conn.) were cracked, the embryos with intact yolks placed in 20×100 mm petri dishes and incubated for 3 days at 37° C. and 3% CO2 (Folkman, 1995). Methylcellulose (Fisher Scientific, Fair Lawn, N.J.) discs containing 5, 10 or 50 μg of either GSAA or GSAO were then applied to the CAM of individual embryos and incubated for 48 hr at 37° C. and 3% CO2. The discs were made by desiccation of GSAA or GSAO in 10 μl of 0.45% methycellulose on teflon rods. The CAMs were observed using a stereomicroscope and scored for no obvious effect or inhibition of CAM angiogenesis as defined by avascular zones. On some occasions CAM blood vessels were injected with India ink and photographed.
smiles,measurement,setting,value
"N[C@@H](CCC(=O)N[C@@H](CSCC(=O)Nc1ccc([As](=O)(O)O)cc1)C(=O)NCC(=O)O)C(=O)O [GSAA, 4-(N-(S-glutathionylacetyl)amino)phenylarsonic acid, reference compound]",effect on proliferation or viability of BAE cells,[1]; not shown,did not effect either proliferation or viability
same,effect on proliferation or viability,"[2]; 3T3, up to a concentration of 1 mM",no significant effect
same,effect on proliferation or viability,"[3]; HT1080, up to a concentration of 1 mM",no significant effect
same,effect on proliferation or viability,"[4]; BxPC-3, up to a concentration of 1 mM",no significant effect
same,effect on proliferation or viability,[5]; up to a concentration of 1 mM,no significant effect
same,effect on viability of BCE cells,[6]; 0 to 1 mM,no significant effect
same,effect on proliferation of BCE cells,"[6]; highest concentration used, 1 mM",only a marginal effect
same,adverse effect on the wellbeing of the chick embryo,[7],Neither GSAA nor GSAO had any apparent adverse effect
same,inhibition of CAM angiogenesis (avascular zones),[7],did not inhibit CAM angiogenesis
same,inhibition of CAM angiogenesis (avascular zones),[7]; listed as GSM,no effects
"NC(CCC(=O)NC(CSCC(=O)Nc1ccc([As]=O)cc1)C(=O)NCC(=O)O)C(=O)O (centres unmarked) [GSAO, 4-(N-(S-glutathionylacetyl)amino)-phenylarsenoxide]",pIC50,"[1]; 5% BCS, read-out: Proliferation IC50",~7.70
same,pIC50,"[1]; 5% BCS, >90% confluent, read-out: Viability IC50",~5.10
same,pIC50,"[1]; 10% BCS, read-out: Proliferation IC50",~6.70
same,pIC50,"[1]; 10% BCS, >90% confluent, read-out: Viability IC50",~5.00
same,Proliferation IC50,"[2]; 3T3, 5% FCS, 72 hr",did not affect the proliferation; also recorded: No effect
same,pIC50,"[2]; Mus musculus, Fibroblast, 3T3, 5% FCS, 72 hr",~4.40
same,Proliferation IC50,"[3]; HT1080, 5% FCS, 72 hr",did not affect the proliferation; also recorded: No effect
same,pIC50,"[3]; Homo sapiens, HT-1080, HT1080, 5% FCS, 72 hr",~4.40
same,Proliferation IC50,"[4]; BxPc3, 5% FCS, 72 hr",did not affect the proliferation; also recorded: No effect
same,pIC50,"[4]; Homo sapiens, BXPC-3, BxPc3, 5% FCS, 72 hr",~4.40
same,Proliferation IC50,"[5]; 5% BCS, 72 hr",did not affect the proliferation; also recorded: No effect
same,pIC50,"[5]; Bos taurus, 5% BCS, 72 hr",~4.40
same,decrease in viability of BCE cells over time,"[6]; 10 μM GSAO, after 8 hours",no decrease in viability
same,pIC50,"[6]; 5% BCS + 1 ng/mL FGF-2, 72 hr, read-out: Proliferation IC50",~7.00
same,pIC50,"[6]; 5% BCS + 1 ng/mL FGF-2, >90% confluent, 72 hr, read-out: Viability IC50",~5.00
same,pIC50,"[6]; 5% BCS + 10 ng/mL VEGF, 72 hr, read-out: Proliferation IC50",~7.30
same,pIC50,"[6]; 5% BCS + 10 ng/mL VEGF, >90% confluent, 72 hr, read-out: Viability IC50",~5.52
same,adverse effect on the wellbeing of the chick embryo,[7],Neither GSAA nor GSAO had any apparent adverse effect
same,inhibition of CAM angiogenesis (avascular zones),[7],inhibited angiogenesis in the CAM in a concentration-dependent manner
